Laboratory results published in patent US20070004653A1, “Stable lyophilized anthracycline glycosides” (priority 2005, published 2007).
Read-outs that look alike come from different tables or passages of the source.

How the values were obtained:
[1] = cited from earlier work
[2] = Purification of Epirubicin HCl: solution warmed to 60° C., dimer and aglycone; type: physicochemical; conditions: for dimer content / epirubicin aglycone: cooled to 50-60° C.
Description: Epirubicin hydrochloride (1550 mg) (containing epirubicin aglycone 0.04% and dimer 0.8%) was dissolved in water (100 ml) and the pH was corrected to 3.2-3.8 with hydrochloric acid at room temperature. The solution was then warmed in about ½ hour to 60° C.-65° C. and then maintained at tis temperature for 1 hour and then the solution was cooled to 50-60° C. At the same time, the pH was corrected to 4.5-5.0 with sodium hydroxide (at this point epirubicin aglycone was about 0,10% and dimer content<0,10%). Then the solution was quickly transferred to a cold container.
Epirubicin hydrochloride (1550 mg) (containing epirubicin aglycone 0.04% and dimer 0.8%) was dissolved in water (100 ml) and the pH corrected to 3.2-3.8 with hydrochloric acid at room temperature (by means of 30 microliters of a 1 M aqueous solution). The solution was quickly warmed (in less than ½ hour) to 60° C.-65° C. and then maintained at this temperature for 45 minutes and then the solution was cooled to 50-60° C. At the same time, the pH was corrected to 4.5-5.0 with AMBERLITE® IRA-67 free base (0,18 ml of resin 1,6M) (at this point epirubicin aglycone was about 0,09% and dimer content<0,10%). Then the solution was quickly filtered and then transferred into a cold container.

[3] = cited from earlier work; remark: listed apart in the source
[4] = cited from earlier work; remark: listed apart in the source
[5] = Preparation of stable lyophilized anthracycline glycoside hydrochlorides: aglycone and dimer in the lyophilized product; type: physicochemical
Description: (§1) Idarubicin hydrochloride (500 mg) was dissolved in water (50 ml) and acetic acid and ammonium acetate (both 1.5% molar amount with respect to the molar amount of idarubicin hydrochloride) were added. The solution was frozen and lyophilized.
as §1, with “Charcoal was then added (100 g) and the solution was stirred for two hours. After that, the suspension was filtered through 0.4 micron membrane and then the” for “The”
Doxorubicin hydrochloride (500 mg) was dissolved in water (20 ml) and the pH corrected to 3.5 with acetic acid at room temperature. The solution was then warmed to 60° C. for 2 hours and then ammonium acetate (1.5% molar amount with respect to the molar amount of doxorubicin hydrochloride) was added. Then the solution was quickly frozen and lyophilized.
(§2) Epirubicin hydrochloride (1550 mg) was dissolved in water (100 ml) and the pH corrected to 3.2-3.8 with hydrochloric acid at room temperature. The solution was then warmed to 60° C.-65° C. for 1 hours and then the solution was cooled to 50-60° C. At the same time, the pH was corrected to 4.5-5.0 with sodium hydroxide. Then the solution was quickly frozen and lyophilized.
Idarubicin hydrochloride (5.0 g) was dissolved in water (500 ml). Then 58 microlitres of AMBERLITE® IRA-67 (1.6M) acetate (meaning 1.0% molar amount with respect to the molar amount of idarubicin hydrochloride) and 4.5 mg of acetic acid (meaning 0.8% molar amount with respect to the molar amount of idarubicin hydrochloride) were added. The suspension was slurried for two hours, then filtered, frozen and lyophilized.
Doxorubicin hydrochloride (5.0 g) was dissolved in water (200 ml) and the pH corrected to 4.6-4.8 with IN hydrochloric acid at room temperature. Then 80 microlitres of AMBERLITE® IRA-67 (1.6M) acetate (meaning 1.5% molar amount with respect to the molar amount of doxorubicin hydrochloride) was added. The solution was then filtered, frozen and lyophilized.
as §2, with “was” for “was then”, “hour” for “hours”, “AMBERLITE® IRA-67 free base.” for “sodium hydroxide.”, “filtered, frozen,” for “frozen”

[6] = Stability tests of Doxorubicin HCl solutions at room temperature (aglycone); type: physicochemical
Description: Doxorubicin hydrochloride (500 mg) was dissolved in 0.001 N hydrochloric acid (20 ml) at room temperature. The pH of this solution was 3.25.
Doxorubicin hydrochloride (500 mg) was dissolved in 0.1 N acetic acid (20 ml) at room temperature. The pH of this solution was 2.62. After 1 hour, ammonium acetate (4% molar amount with respect to the molar amount of the doxorubicin hydrochloride) was added to the solution and the solution kept at room temperature. The pH rose from 2.62 to 3.02. The results in table 46 show the stability data of this solution at room temperature.
Doxorubicin hydrochloride (500 mg) was dissolved in 0.05 M formic acid (20 ml) at room temperature. The pH of this solution was 2.52. After 1 hour, ammonium acetate (4% molar amount in respect of the molar amount of doxorubicin hydrochloride) was added and the solution kept at room temperature. The pH rose from 2.52 to 2.71.

[7] = Stability test of stabilized lyophilized Doxorubicin HCl (IRA-67 acetate resin); type: physicochemical
Description: Starting product was doxorubicin hydrochloride, 2.5% w/v in water. The pH of this solution was corrected to 4.6-4.8 with IN HCl. Then 1.5% molar amount of AMBERLITE® IRA-67 (1.6 M) acetate with respect to doxorubicin hydrochloride was added. After 2 hr of slurrying, the solution was filtered through a 0.4 micron membrane then it was, frozen and lyophilized.

[8] = Purification of Doxorubicin HCl: solution at pH 3.5 warmed to 60° C., aglycone; type: physicochemical
Description: Doxorubicin hydrochloride (500 mg) was dissolved in water (10 ml) at room temperature. A small amount of 0.1 N hydrochloric acid was added to lower the pH from 5.4 to 3.5. […]

[9] = Example 36: 1550 mg in water (100 ml), t = 0, pH 3.6, 20° C.
[10] = Example 36: after 1 hour at 60° C.-65° C., pH corrected to 4.5-5.0 with sodium hydroxide
[11] = Example 36: final, pH 4.8 (sodium hydroxide), 10° C.
[12] = Example 37: 1550 mg in water (100 ml), t = 0, pH 3.6, 20° C.
[13] = Example 37: Final, pH 4.7 (AMBERLITE IRA-67 free base), 10° C.
[14] = Example 37: after 45 minutes at 60° C.-65° C., pH corrected to 4.5-5.0 with AMBERLITE IRA-67 free base
[15] = starting Epirubicin hydrochloride (1550 mg) before dissolving
[16] = Example 41: pH 3.2-3.8, 60° C.-65° C. for 1 hour, pH 4.5-5.0 with sodium hydroxide, frozen and lyophilized
[17] = Example 44: pH 3.2-3.8, 60° C.-65° C. for 1 hour, pH 4.5-5.0 with AMBERLITE IRA-67 free base, filtered, frozen, lyophilized

## COc1cccc2c1C(=O)c1c(O)c3c(c(O)c1C2=O)C[C@@](O)(C(=O)CO)C[C@@H]3O[C@H]1C[C@@H](N)[C@@H](O)C(C)O1 (stereo partly shown) [Epirubicin]
[1]; in acetone, chloroform, and methylene chloride
  solubility: practically insoluble
[1]; in water, methanol and ethyl alcohol, at a temperature of 50° C.
  solubility: soluble

## COc1cccc2c1C(=O)c1c(O)c3c(c(O)c1C2=O)C[C@@](O)(C(=O)CO)C[C@@H]3O[C@H]1CC(N)[C@@H](O)C(C)O1.Cl (stereo in doubt) [Epirubicin HCl, epirubicin hydrochloride]
[2]; [9]
  % aglycone: 0.04%
  % dimer content: 0.80%
[2]; Example 36: 15 min, 60° C.
  % aglycone: 0.06%
  % dimer content: 0.38%
[2]; Example 36: 30 min, 60° C.
  % aglycone: 0.07%
  % dimer content: 0.18%
[2]; Example 36: 45 min, 60° C.
  % aglycone: 0.09%
  % dimer content: 0.11%
[2]; Example 36: 60 min, 60° C.
  % aglycone: 0.11%
  % dimer content: 0.08%
[2]; Example 36: T = 0, 60° C.
  % aglycone: 0.04%
  % dimer content: 0.74%
[2]; [10]
  dimer content: < 0,10%
  epirubicin aglycone: about 0,10%
[2]; [11]
  % aglycone: 0.11%
  % dimer content: 0.08%
[2]; [12]
  % aglycone: 0.04%
  % dimer content: 0.80%
[2]; Example 37: 10 min, 60° C.
  % aglycone: 0.05%
  % dimer content: 0.38%
[2]; Example 37: 20 min, 60° C.
  % aglycone: 0.07%
  % dimer content: 0.18%
[2]; Example 37: 30 min, 60° C.
  % aglycone: 0.09%
  % dimer content: 0.11%
[2]; Example 37: 40 min, 60° C.
  % aglycone: 0.10%
  % dimer content: 0.08%
[2]; [13]
  % aglycone: 0.10%
  % dimer content: 0.08%
[2]; Example 37: T = 0, 60° C.
  % aglycone: 0.05%
  % dimer content: 0.76%
[2]; [14]
  dimer content: < 0,10%
  epirubicin aglycone: about 0,09%
[2]; [15]
  dimer contained: 0.8%
  epirubicin aglycone contained: 0.04%
[3]
  pH in a 0.5% w/v solution in water: 4-5.5
[4]
  pKa in water: 7.7
[5]; [16]
  aglycone contained in lyophilized product: 0.12%
  dimer contained in lyophilized product: 0.1%
[5]; [17]
  aglycone contained in lyophilized product: 0.10%
  dimer contained in lyophilized product: 0.10%

## COc1cccc2c1C(=O)c1c(O)c3c(c(O)c1C2=O)C[C@@](O)(C(=O)CO)C[C@@H]3O[C@H]1C[C@@H](N)[C@H](O)C(C)O1.Cl (stereo partly shown) [Doxorubicin HCl, Doxorubicin hydrochloride]
[6]; 0.05 M formic acid, after addition of NH4OAc (4% molar), pH 2.71, 0.5 hr - 20° C.
  % aglycone: 0.13%
[6]; 0.05 M formic acid, after addition of NH4OAc (4% molar), pH 2.71, 1.0 hr - 20° C.
  % aglycone: 0.11%
[6]; 0.05 M formic acid, after addition of NH4OAc (4% molar), pH 2.71, 1.5 hr - 20° C.
  % aglycone: 0.12%
[6]; 0.05 M formic acid, after addition of NH4OAc (4% molar), pH 2.71, 2.0 hr - 20° C.
  % aglycone: 0.10%
[6]; 0.05 M formic acid, after addition of NH4OAc (4% molar), pH 2.71, 4.0 hr - 20° C.
  % aglycone: 0.14%
[6]; 0.1 N acetic acid, after addition of NH4OAc (4% molar), pH 3.02, 0.5 hr - 20° C.
  % aglycone in doxorubicin HCl: 0.20%
[6]; 0.1 N acetic acid, after addition of NH4OAc (4% molar), pH 3.02, 1.0 hr - 20° C.
  % aglycone in doxorubicin HCl: 0.13%
[6]; 0.1 N acetic acid, after addition of NH4OAc (4% molar), pH 3.02, 1.5 hr - 20° C.
  % aglycone in doxorubicin HCl: 0.12%
[6]; 0.1 N acetic acid, after addition of NH4OAc (4% molar), pH 3.02, 2.0 hr - 20° C.
  % aglycone in doxorubicin HCl: 0.35%
[6]; 0.1 N acetic acid, after addition of NH4OAc (4% molar), pH 3.02, 3.0 hr - 20° C.
  % aglycone in doxorubicin HCl: 0.12%
[6]; 0.1 N acetic acid, after addition of NH4OAc (4% molar), pH 3.02, 6.0 hr - 20° C.
  % aglycone in doxorubicin HCl: 0.16%
[6]; 500 mg in 0.001 N hydrochloric acid (20 ml), pH 3.25, 20° C., 1.0 hr
  % aglycone: 0.24%
[6]; 500 mg in 0.001 N hydrochloric acid (20 ml), pH 3.25, 20° C., 3.0 hr
  % aglycone: 0.21%
[6]; 500 mg in 0.001 N hydrochloric acid (20 ml), pH 3.25, 20° C., 5.0 hr
  % aglycone: 0.26%
[6]; 500 mg in 0.001 N hydrochloric acid (20 ml), pH 3.25, 20° C., 22.0 hr
  % aglycone: 0.25%
[6]; 500 mg in 0.05 M formic acid (20 ml), 1.0 hr - 20° C., pH 2.52, before addition of NH4OAc
  % aglycone: 0.20%
[6]; 500 mg in 0.1 N acetic acid (20 ml), 1.0 hr - 20° C., pH 2.62, before addition of NH4OAc
  % aglycone in doxorubicin HCl: 0.17%
[7]; lyophilized product obtained (IRA-67 acetate treatment)
  % aglycone: 0.09%
[7]; solution after treatment with 1.5% mol of IRA-67 acetate, slurried 2 hr, filtered, loaded into lyophilizer
  % aglycone: 0.07%
[7]; starting solid doxorubicin hydrochloride, 2.5% w/v in water, after correcting pH (4.75), before resin treatment
  % aglycone: 0.07%
[5]; Example 40: pH 3.5 with acetic acid, 60° C. for 2 hours, ammonium acetate 1.5% molar, frozen and lyophilized
  aglycone contained in lyophilized product: 0.12%
[5]; Example 43: pH 4.6-4.8, AMBERLITE IRA-67 acetate 1.5% molar, filtered, frozen and lyophilized
  aglycone contained in lyophilized product: 0.10%
[8]; 500 mg in water (10 ml), pH lowered from 5.4 to 3.5 with hydrochloric acid, 1 hr, 60° C.
  % aglycone: 0.11%
[8]; 500 mg in water (10 ml), pH lowered from 5.4 to 3.5 with hydrochloric acid, 2 hr, 60° C.
  % aglycone: 0.31%
[8]; pH 3.5 solution after two hours at 60° C., cooled, 1 hr, 20° C.
  % aglycone: 0.21%
[8]; pH 3.5 solution after two hours at 60° C., cooled, 3 hr, 20° C.
  % aglycone: 0.22%

## COc1cccc2c1C(=O)c1c(O)c3c(c(O)c1C2=O)C[C@@](O)(C(=O)CO)C[C@@H]3O[C@H]1C[C@@H](N)[C@H](O)C(C)O1 (stereo partly shown) [Doxorubicin]
[1]; in acetone, benzene, chloroform and ethyl ether
  solubility: practically insoluble
[1]; in water, methanol
  solubility: soluble
